“Also recorded” adds a separate entry of the source.
How the values were obtained:
[1] = target: T1, H-2K^b (Mus musculus, UniProt P01901); experiment: MHC complex stability, circular dichroism thermal denaturation; type: binding; conditions: for Tm (melting temperature): soluble H-2K^b/peptide complex, CD 218 nm, 30-75°C, 48°C/hour, 20 mM K2HPO4/KH2PO4 pH 7.5, protein 0.15 to 0.25 mg/ml, Tm at 50% denaturation
[2] = target: T1, H-2K^b; experiment: MHC complex stability, Thermofluor (differential scanning fluorimetry); type: binding; conditions: H-2K^b/peptide complex 0.25 mg/mL, 10 mM Na^+ HEPES pH 7.3, 150 mM NaCl, SYPRO Orange, 20 to 95°C at 1°C/min; maximum of first derivative; average of three distinct melting curves
Procedure: Differential scanning fluorimetry experiments were carried out using an iQ5 real-time PCR detection system (Bio-Rad). 96-well PCR plates were filled with 23 µl of MHC solution (0.25 mg/mL) in 10 mM Na^+ HEPES buffer (pH 7.3), 150 mM NaCl per well. Finally, the fluorophore (2 µl of 125× SYPRO Orange (Sigma S5692)) was added to each well and the plate was sealed with optical sealing tape (Bio-Rad). An iQ5 Real-Time PCR Detection System, calibrated with External Well factor solution was used to monitor the changes in fluorescence intensity of the fluorophore. The temperature of the samples was changed from 20 to 95°C at a heating rate of 1°C/min and the fluorescence was recorded every 0.2°C. The melting temperature (Tm) of each melting curve was calculated as the maximum of the first derivative of the curve. The average Tm value of each protein was determined from three distinct melting curves.

[3] = tested on: T cell hybridoma 24H1; parameters: method as in PMID 18424715; conditions: cited from earlier work; for recognition by T cell hybridoma 24H1: H-2K^b/peptide or H-2K^b+ target cells coated with peptide
[4] = target: T1, H-2K^b; experiment: Peptide-MHC binding affinity assay, stabilization of H-2K^b on TAP-deficient RMA-S cells; conditions: 5×10^5, peptide overnight (12 hours) 26°C in serum free AIM-V, then 37°C 60 min without peptide, anti-H-2K^b AF6-88.5, flow cytometry, MFI relative to no peptide, repeated three times
[5] = tested on: T cell hybridoma 4C8; conditions: H-2D^b context; 4C8 is H-2D^b/NY-gp33-specific; cited from earlier work
Source text: A significant amount of the overall CD8^+ T cell response to LCMV is dominated by very few viral epitopes, comprising the H-2D^b-and H-2K^b- restricted peptide gp33–41 (hereafter referred to as gp33; […]) and the H-2K^b-restricted peptide gp34–41 (gp34; […]), [39]. Both gp33 and gp34 contain a single tyrosine residue at positions ...

[6] = average of at least two independent measurements, value ± spread printed in Figure 4B
[7] = average of at least two measurements from two independent refolding assays

T1 sequence (P01901 whole entry, looked up): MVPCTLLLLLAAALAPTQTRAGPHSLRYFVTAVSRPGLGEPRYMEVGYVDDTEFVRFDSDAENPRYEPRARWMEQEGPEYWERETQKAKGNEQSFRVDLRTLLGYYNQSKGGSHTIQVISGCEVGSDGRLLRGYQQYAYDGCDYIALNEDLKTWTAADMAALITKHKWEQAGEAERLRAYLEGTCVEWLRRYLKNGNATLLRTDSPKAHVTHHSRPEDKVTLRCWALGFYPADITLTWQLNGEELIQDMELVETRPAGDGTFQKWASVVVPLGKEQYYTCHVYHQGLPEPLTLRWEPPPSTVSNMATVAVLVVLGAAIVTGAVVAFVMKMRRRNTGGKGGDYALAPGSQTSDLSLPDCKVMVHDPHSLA

Substance	capacity to stabilize H-2K^b complexes ([1]; CD thermal denaturation, compared to gp34)	decrease in Tm of H-2K^b/NY-gp34 versus H-2K^b/gp34 ([1]; CD, pH 7.5, lower than for H-2K^b/gp34 (nearly)) [°C]	Tm (melting temperature) [1, 6]	Tm (melting temperature) [1, 7] [°C]	Tm (melting temperature) [2]	relative level of recognition by 24H1, NY-gp34 versus NY-gp33 ([3]; H-2K^b context)	recognition by T cell hybridoma 24H1 [3]	binding affinity to H-2K^b (cell surface stabilization) [4]	recognition by T cell hybridoma 4C8 [5]
AV-p3NY-NFATM [NY-gp34, nitrotyrosinated gp34, AV-p3NY-NFATM]	considerably reducing the stability; also recorded: significantly reduced when compared to gp34; also recorded: significantly reduced capacity	~10	47.3 ± 0.1	47.3	44.5±0.2	to a higher level when compared to H-2K^b/NY-gp33	recognized; also recorded: responded to stimulation	significantly reduced binding affinity; also recorded: significantly reduced when compared to gp33 and gp34	
AVYNFATM [gp34]			56.7 ± 0.1	56.7	54.4±0.1		did not recognize		
KAVYNFATM [gp33]							did not recognize		did not recognize

Reference: publication PMC3303804, “Inflammation-Associated Nitrotyrosination Affects TCR Recognition through Reduced Stability and Alteration of the Molecular Surface of the MHC Complex” (PLoS ONE, 2012)
